Experimental data reported in patent publication US8895637B2, “Environment-friendly antifoulants for the prevention of biofouling” (University of North Texas Health Science Center at Fort …, priority 2007, dated 2014).
Like-named read-outs stand apart in the source and are kept apart here.

Columns and labels:
[1] = tested on: zebra mussels (Dreissena polymorpha)
zebra mussel = conditions: controlled laboratory setting; cited from earlier work
[2] = tested on: Daphnia magna (water flea); experiment: non-target organism screening, Daphnia cumulative mortality; assay type: in vivo; conditions: for lethal effect / toxicity towards non-target (Daphnia) organism: at a dose that totally prevents fouling by mussels; for toxicity to other non-target organisms (water fleas, Daphnia magna): summary statement
Method: Those compounds that were determined to be highly efficacious zebra mussel antifoulants with little or no toxicity were additionally assessed for toxicity in another non-target aquatic species. The freshwater cladoceran crustacean Daphnia magna (water flea) is commonly utilized for aquatic toxicity testing (Suedel et al., 1997), with 10,583 tests of toxic end points being reported for this species on the USEPA ECOTOX web site. Three replicates of 20 adult specimens of D. magna were exposed to each compound employing a dose range that was the same or greater than that used in zebra mussel antifouling studies. The conditions for toxicity testing of water fleas were the same as those used for testing zebra mussel antifouling and toxicity (i.e., polypropylene containers at 15° C.), except that test medium volume was 40 ml and exposure was increased to three days. Dead individuals were removed every 24 h and the total number of surviving individuals was recorded at the end of 1, 2, and 3 days. Although the level of Daphnia mortality was too low in most cases, when it was high enough to be reliably estimated then the Daphnia lethal dose values (i.e., LD50) were estimated using the same methods employed in the mussel byssal attachment studies. Uniformity of test organisms was maintained by establishing a laboratory D. magna culture with specimens initially purchased from a biological supply company.

[3] = mixed with paint applied to a surface or applied as a dust; cited from earlier work
[4] = target: vanilloid receptor 1 (VR1) receptor (Homo sapiens, UniProt Q8NER1); conditions: cited from earlier work
Sequence of vanilloid receptor 1 (VR1) receptor (Q8NER1 whole entry, species assumed): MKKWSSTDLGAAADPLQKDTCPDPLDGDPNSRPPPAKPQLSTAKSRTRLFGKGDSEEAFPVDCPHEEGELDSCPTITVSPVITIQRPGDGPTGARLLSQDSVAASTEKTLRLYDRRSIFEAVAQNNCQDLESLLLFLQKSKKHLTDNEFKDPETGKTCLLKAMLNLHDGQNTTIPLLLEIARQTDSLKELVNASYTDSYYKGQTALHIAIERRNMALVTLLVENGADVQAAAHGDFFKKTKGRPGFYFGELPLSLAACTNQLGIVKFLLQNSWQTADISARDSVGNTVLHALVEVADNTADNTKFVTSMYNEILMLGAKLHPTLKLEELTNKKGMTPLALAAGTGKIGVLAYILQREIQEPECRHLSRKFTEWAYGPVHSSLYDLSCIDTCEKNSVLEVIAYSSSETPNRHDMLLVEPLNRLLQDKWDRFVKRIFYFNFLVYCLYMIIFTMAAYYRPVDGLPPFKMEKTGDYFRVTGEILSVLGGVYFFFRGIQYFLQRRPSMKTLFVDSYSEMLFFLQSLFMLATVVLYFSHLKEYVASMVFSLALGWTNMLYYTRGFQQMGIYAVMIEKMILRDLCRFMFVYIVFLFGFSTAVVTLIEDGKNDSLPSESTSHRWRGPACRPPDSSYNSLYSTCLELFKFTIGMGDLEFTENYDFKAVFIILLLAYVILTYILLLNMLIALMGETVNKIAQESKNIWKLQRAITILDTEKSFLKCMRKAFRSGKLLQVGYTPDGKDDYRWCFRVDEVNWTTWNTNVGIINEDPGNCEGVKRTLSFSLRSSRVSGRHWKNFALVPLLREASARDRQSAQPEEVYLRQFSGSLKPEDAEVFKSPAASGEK

[5] = single high concentration (e.g., 30 μM), 48 h, FIG. 4 and FIG. 6
[6] = single high concentration (e.g., 30 μM), second 48 h post-exposure / both periods

SMILES	residual effect to the target organism ([1]; in vivo)	zebra mussel antifouling efficacy ([1]; in vivo)	lethal effect / toxicity towards non-target (Daphnia) organism [2]	antifouling efficacy (fraction of unattached mussels during the first 48 h) ([1]; in vivo)	target organism residual effects ("toxicity") or lethality ([1]; in vivo)	other results
COc1cc(CNC(=O)CCCC/C=C/C(C)C)ccc1O (racemic) [capsaicin, reference compound]	little residual effect	efficacious	no toxicity			toxicity to the target organism (zebra mussels) ([1]; in vivo): reduced toxicity; zebra mussel antifoulant effect (zebra mussel): effective; toxicity to other non-target organisms (water fleas, Daphnia magna) [2]: reduced toxicity; antifouling effectiveness compared with copper [3]: not as effective as copper
COc1ccc(C(=O)c2c(C)n(CCN3CCOCC3)c3cc(I)ccc23)cc1 [AM630]	some residual effect	efficacious	no significant lethality	efficacious	minimal	dose that totally prevents fouling by mussels ([1]; in vivo): 4 µM
CCCCCCC(C)(C)c1ccc([C@@H]2C[C@H](O)CC[C@@H]2CCCO)c(O)c1 [CP55,940]						antifouling efficacy (fraction of unattached mussels during the first 48 h) [1, 5]: efficacious; target organism residual effects ("toxicity") or lethality [1, 6]: minimal
CCCCC/C=C\C/C=C\CCCCCCCC(=O)NCCO [Linoleyl ethanolamide]				efficacious	minimal	
CCCCCCCCCC(=O)NC(CC)CO (centres unmarked) [N-(1-(hydroxymethyl)propyl)decanamide]				efficacious	minimal	
CCCCCCCCCCCC(=O)NCC(=O)NN=Cc1ccc(OC)c(OC)c1 [N-(2-(2-(3,4-dimethoxybenzylidene)hydrazine)-2-oxoethyl)dodecanamide]				efficacious	minimal	
CC1=CC[C@H]2[C@@H](C1)c1c(O)cc(CC#CCCCNS(C)(=O)=O)cc1OC2(C)C [O-2050]		efficacious	no lethal effect	efficacious	minimal	residual effect at a dose that totally prevents biofouling ([1]; 6 μM): no residual effect; antifouling potency ([1]; in vivo): higher potency; dose that totally prevents fouling by mussels ([1]; in vivo): 6 µM
CCCCC/C=C\C/C=C\C/C=C\C/C=C\CCCC(=O)NCCO [anandamide]	no residual effect	efficacious	no lethal effect	efficacious	minimal	dose that totally prevents fouling by mussels ([1]; in vivo): 15 µM; toxicity to the target organism (zebra mussels) ([1]; in vivo): reduced toxicity; toxicity to other non-target organisms (water fleas, Daphnia magna) [2]: reduced toxicity
COc1cc(CNC(=O)CCCC/C=C/C(C)C)ccc1O [compound 28, 8-methyl-N-vanillyl-trans-6-nonenamide]				efficacious	minimal	toxicity of the stereoisomer towards the non-target (Daphnia) organism ([2]; inferred from the result for racemic capsaicin): neither stereoisomer (E or Z) is toxic
COc1cc(CNC(=O)CCCC/C=C\C(C)C)ccc1O [compound 29]				efficacious	minimal	attachment of zebra mussels to aquatic striatum ([1]; in vivo): prevents the attachment; toxicity to the target organism ([1]; in vivo): non-toxic; action on the vanilloid receptor 1 (VR1) receptor [4]: does not act on
CCCCC/C=C\C/C=C\C/C=C\C/C=C\CCCCOC(CO)CO [noladin ether]						antifouling efficacy (fraction of unattached mussels during the first 48 h) [1, 5]: efficacious; target organism residual effects ("toxicity") or lethality [1, 6]: minimal
CCCCCCCCC(=O)NCc1ccc(O)c(OC)c1 [pseudocapsaicin, N-vanillylnonanamide]	little residual effect	efficacious	not lethal			antifouling ([1]; 20 μM): 100%; antifouling ([1]; 30 μM): 100%; toxicity to the target organism (zebra mussels) ([1]; in vivo): reduced toxicity; Daphnia toxicity over controls ([2]; 72 h exposure, 20 and 30 μM): no measurable toxicity over controls; lethal effect / toxicity towards non-target (Daphnia) organism ([2]; listed as N-vanillylnonanamide): no significant toxicity; Daphnia mortality ([2]; highest test dose (60 μM), 72 h time point): Statistically significant Daphnia mortality; toxicity to other non-target organisms (water fleas, Daphnia magna) [2]: reduced toxicity
